From patent publication US20150150787A1 (Pearl Therapeutics, Inc., priority 2013, published 2015)

Experiments:
[1] = Aerodynamic particle size distribution by Next Generation Impactor, MF/GP/FF triple cosuspension MDIs (Example 1); assay type: physicochemical; conditions: for FPM values when MF strength was varied: FF 4.8 μg and GPBr 18 μg/actuation, MF 100-300 μg/actuation
Experimental: The FF, GPBr, and MF materials were provided as a separate species of active agent particles, with each of the active agents provided as micronized, crystalline material. The co-suspension compositions were provided in pressurized metered dose inhalers (“MDI” or “MDIs”), with each formulation prepared to provide a delivered dose of 4.8 μg/actuation and 18 μg/actuation, respectively, of FF and GPBr. However, the amount of MF included in the three different compositions was varied, with compositions prepared to provide a delivered dose of MF selected from one of 100 μg/actuation, 200 μg/actuation, and 300 μg/actuation.
The suspending particles used in these co-suspensions were perforated microstructures prepared as described herein using a phospholipid material (DSPC). Drug crystals of GPBr (Boehringer Ingelheim, Petersberg, Va.) were micronized by air jet milling after receipt (median size, X50, ˜1.6 μm), but the FF (Inke, S.A., Barcelona Spain; X50˜1.4 μm) and MF (Hovione, Loures Portugal; X50˜1.6 μm) drug crystals were used as received. The Co-suspension formulations were prepared in HFA 134a propellant (Mexichem, S.A., Tlanepantla Mexico) and filled into 14 mL fluorinated ethylene polymer coated aluminum canisters (Presspart, Blackburn, UK), packaged with 50 μl valves, and delivered using an actuator with orifice size 0.3 mm (Bespak, King's Lynn, UK). Aerodynamic particle size distributions (aPSD) were obtained using the Next Generation Impactor (NGI) with the flow rate set to 30±1 LPM (n=3). Drug content was measured using ion-exchange HPLC with UV detection for FF and GP or reversed-phase HPLC with UV detection for MF.

[2] = Aerosol performance by Next Generation Impactor, BD/GP/FF cosuspension MDIs (Example 2); assay type: physicochemical; conditions: NGI 30 LPM, versus mono/dual cosuspensions or other strengths
Experimental: The aerosol performance of each of the triple cosuspension compositions was evaluated and compared to the aerosol performance provided by the GFF, BFF, and BD Mono cosuspensions. Aerosol performance and aerodynamic particle size distributions were obtained using the Next Generation Impactor (NGI) with the flow rate set to 30±1 LPM (n=3).

SMILES | MF FPM dose proportionality, slope ([1]; FPM = drug mass stages 3 through MOC, MF 100, 200, 300 μg/actuation, NGI 30 LPM, n=3) | FPM values when MF strength was varied [1] | Coformulation effect (aerosol performance) when formulated in the triple cosuspensions [2]
C[C@@H]1C[C@H]2[C@@H]3CCC4=CC(=O)C=C[C@]4(C)[C@@]3(Cl)[C@@H](O)C[C@]2(C)[C@@]1(OC(=O)c1ccco1)C(=O)CCl [MF, mometasone furoate] | 0.48 | – | –
C[N+]1(C)CCC(OC(=O)C(O)(c2ccccc2)C2CCCC2)C1 (stereo not shown) [GP, (3-[(cyclopentylhydroxyphenylacetyl)oxy]-1,1-dimethyl-, bromide)] | – | remained virtually unchanged | –
COc1ccc(C[C@@H](C)NC[C@H](O)c2ccc(O)c(NC=O)c2)cc1 (racemic) [FF, (±)-2-hydroxy-5-[(1RS)-1-hydroxy-2-[[(1RS)-2-(4-methoxyphenyl)-1-methylethyl]-amino]ethyl] formanilide] | – | remained virtually unchanged | no coformulation effect was observed
